Where two headings read alike, the source gives them in different places.
System: K. pneumoniae NVT1001 strains with ESBL or AmpC β-lactamase plasmids
Experiment: Etest MIC of β-lactams, OmpK35/36 loss, ΔramR and/or extended-spectrum β-lactamase and AmpC β-lactamase (Table 8)
Format: cell-based, Klebsiella pneumoniae
Conditions: for MIC: Klebsiella pneumoniae
Method: DNA fragments of the resistance genes along with their flanking regions were amplified from clinical plasmids via PCR with specific primer pairs. The resulting PCR fragments were digested and then cloned into the plasmid pACYC177 or pACYC184. The resulting plasmids were then transformed into K. pneumoniae strain NVT1001 via electroporation. The recombinant bacteria were plated onto LB agar plates containing kanamycin (50 mg/L) or chloramphenicol (50 mg/L), and the presence of the cloned gene was confirmed via PCR and DNA sequencing.
The MICs of antibiotics were determined using the Etest (Biodisk AB, Sweden) according to the manufacturer's instructions. The MICs from the Etest, which fall between standard two-fold dilutions, were rounded up to the next highest two-fold value. The MICs of ceftazidime and cefotaxime against K. pneumoniae NVT1001 harbouring the pACYC177 plasmid with blaOXA-48 were further determined using a broth microdilution test according to the recommendations of the CLSI,^25 and the results were interpreted according to the breakpoints established by the CLSI in 2017.^25 Meanwhile, due to the lack of CLSI breakpoints in 2016 and 2017, the results for cephalothin were interpreted according to the breakpoints established by the CLSI in 2015,^26 and the results for moxifloxacin were interpreted according to the breakpoints established by the EUCAST in 2017.^27

[1] = CMY-2 on pACYC177, WT (NVT1001), read-out: MIC
[2] = CMY-2 on pACYC177, Δ35 (ΔompK35 mutant)
[3] = CMY-2 on pACYC177, Δ35/36 (ΔompK35/36 mutant)
[4] = CMY-2 on pACYC177, Δ36 (ΔompK36 mutant)
[5] = CMY-2 on pACYC177, ΔramR mutant
[6] = CMY-2 on pACYC177, ΔramRΔ35 (ΔramRΔompK35 mutant)
[7] = CMY-2 on pACYC177, ΔramRΔ35/36 (ΔramRΔompK35/36 mutant)
[8] = CMY-2 on pACYC177, ΔramRΔ36 (ΔramRΔompK36 mutant)
[9] = CTX-M-14 on pACYC177, WT (NVT1001), read-out: MIC
[10] = CTX-M-14 on pACYC177, Δ35 (ΔompK35 mutant)
[11] = CTX-M-14 on pACYC177, Δ35/36 (ΔompK35/36 mutant)
[12] = CTX-M-14 on pACYC177, Δ36 (ΔompK36 mutant)
[13] = CTX-M-14 on pACYC177, ΔramR mutant
[14] = CTX-M-14 on pACYC177, ΔramRΔ35 (ΔramRΔompK35 mutant)
[15] = CTX-M-14 on pACYC177, ΔramRΔ35/36 (ΔramRΔompK35/36 mutant)
[16] = CTX-M-14 on pACYC177, ΔramRΔ36 (ΔramRΔompK36 mutant)
[17] = CTX-M-15 on pACYC177, WT (NVT1001), read-out: MIC
[18] = CTX-M-15 on pACYC177, Δ35 (ΔompK35 mutant)
[19] = CTX-M-15 on pACYC177, Δ35/36 (ΔompK35/36 mutant)
[20] = CTX-M-15 on pACYC177, Δ36 (ΔompK36 mutant)
[21] = CTX-M-15 on pACYC177, ΔramR mutant
[22] = CTX-M-15 on pACYC177, ΔramRΔ35 (ΔramRΔompK35 mutant)
[23] = CTX-M-15 on pACYC177, ΔramRΔ35/36 (ΔramRΔompK35/36 mutant)
[24] = CTX-M-15 on pACYC177, ΔramRΔ36 (ΔramRΔompK36 mutant)
[25] = DHA-1-AmpR on pACYC177, WT (NVT1001), read-out: MIC
[26] = DHA-1-AmpR on pACYC177, Δ35 (ΔompK35 mutant)
[27] = DHA-1-AmpR on pACYC177, Δ35/36 (ΔompK35/36 mutant)
[28] = DHA-1-AmpR on pACYC177, Δ36 (ΔompK36 mutant)
[29] = DHA-1-AmpR on pACYC177, ΔramR mutant
[30] = DHA-1-AmpR on pACYC177, ΔramRΔ35 (ΔramRΔompK35 mutant)
[31] = DHA-1-AmpR on pACYC177, ΔramRΔ35/36 (ΔramRΔompK35/36 mutant)
[32] = DHA-1-AmpR on pACYC177, ΔramRΔ36 (ΔramRΔompK36 mutant)
[33] = SHV-12 on pACYC177, WT (NVT1001), read-out: MIC
[34] = SHV-12 on pACYC177, Δ35 (ΔompK35 mutant)
[35] = SHV-12 on pACYC177, Δ35/36 (ΔompK35/36 mutant)
[36] = SHV-12 on pACYC177, Δ36 (ΔompK36 mutant)
[37] = SHV-12 on pACYC177, ΔramR mutant
[38] = SHV-12 on pACYC177, ΔramRΔ35 (ΔramRΔompK35 mutant)
[39] = SHV-12 on pACYC177, ΔramRΔ35/36 (ΔramRΔompK35/36 mutant)
[40] = SHV-12 on pACYC177, ΔramRΔ36 (ΔramRΔompK36 mutant)
[41] = no supplemental plasmid, WT (NVT1001), read-out: MIC
[42] = no supplemental plasmid, Δ35 (ΔompK35 mutant)
[43] = no supplemental plasmid, Δ35/36 (ΔompK35/36 mutant)
[44] = no supplemental plasmid, Δ36 (ΔompK36 mutant)
[45] = no supplemental plasmid, ΔramR mutant
[46] = no supplemental plasmid, ΔramRΔ35 (ΔramRΔompK35 mutant)
[47] = no supplemental plasmid, ΔramRΔ35/36 (ΔramRΔompK35/36 mutant)
[48] = no supplemental plasmid, ΔramRΔ36 (ΔramRΔompK36 mutant)

CO[C@@]1(NC(=O)Cc2cccs2)C(=O)N2C(C(=O)O)=C(COC(N)=O)CS[C@@H]21 [Cefoxitin]
MIC [1]: > 256 mg/L
MIC [2]: > 256 mg/L
MIC [3]: > 256 mg/L
MIC [4]: > 256 mg/L
MIC [5]: > 256 mg/L
MIC [6]: > 256 mg/L
MIC [7]: > 256 mg/L
MIC [8]: > 256 mg/L
MIC [9]: 4 mg/L
MIC [10]: 8 mg/L
MIC [11]: 64 mg/L
MIC [12]: 16 mg/L
MIC [13]: 64 mg/L
MIC [14]: 64 mg/L
MIC [15]: > 256 mg/L
MIC [16]: > 256 mg/L
MIC [17]: 4 mg/L
MIC [18]: 8 mg/L
MIC [19]: 64 mg/L
MIC [20]: 16 mg/L
MIC [21]: 64 mg/L
MIC [22]: 64 mg/L
MIC [23]: > 256 mg/L
MIC [24]: > 256 mg/L
MIC [25]: > 256 mg/L
MIC [26]: > 256 mg/L
MIC [27]: > 256 mg/L
MIC [28]: > 256 mg/L
MIC [29]: > 256 mg/L
MIC [30]: > 256 mg/L
MIC [31]: > 256 mg/L
MIC [32]: > 256 mg/L
MIC [33]: 4 mg/L
MIC [34]: 8 mg/L
MIC [35]: 128 mg/L
MIC [36]: 16 mg/L
MIC [37]: 64 mg/L
MIC [38]: 64 mg/L
MIC [39]: > 256 mg/L
MIC [40]: > 256 mg/L
MIC [41]: 4 mg/L
MIC [42]: 4 mg/L
MIC [43]: 128 mg/L
MIC [44]: 16 mg/L
MIC [45]: 64 mg/L
MIC [46]: 64 mg/L
MIC [47]: > 256 mg/L
MIC [48]: > 256 mg/L
effects on the MIC (production of ESBLs tested alone): no significant (≥4-fold) effects

CO/N=C(\C(=O)N[C@@H]1C(=O)N2C(C(=O)O)=C(COC(C)=O)CS[C@H]12)c1csc(N)n1 [Cefotaxime]
MIC [1]: 64 mg/L
MIC [2]: 128 mg/L
MIC [3]: > 256 mg/L
MIC [4]: > 256 mg/L
MIC [5]: 128 mg/L
MIC [6]: 128 mg/L
MIC [7]: > 256 mg/L
MIC [8]: > 256 mg/L
MIC [9]: 64 mg/L
MIC [10]: 128 mg/L
MIC [11]: > 256 mg/L
MIC [12]: > 256 mg/L
MIC [13]: 128 mg/L
MIC [14]: 128 mg/L
MIC [15]: > 256 mg/L
MIC [16]: > 256 mg/L
MIC [17]: > 256 mg/L
MIC [18]: > 256 mg/L
MIC [19]: > 256 mg/L
MIC [20]: > 256 mg/L
MIC [21]: > 256 mg/L
MIC [22]: > 256 mg/L
MIC [23]: > 256 mg/L
MIC [24]: > 256 mg/L
MIC [25]: 8 mg/L
MIC [26]: 16 mg/L
MIC [27]: 64 mg/L
MIC [28]: 16 mg/L
MIC [29]: 16 mg/L
MIC [30]: 16 mg/L
MIC [31]: 64 mg/L
MIC [32]: 64 mg/L
MIC [33]: 32 mg/L
MIC [34]: 32 mg/L
MIC [35]: > 256 mg/L
MIC [36]: 32 mg/L
MIC [37]: 64 mg/L
MIC [38]: 64 mg/L
MIC [39]: 256 mg/L
MIC [40]: 256 mg/L
MIC [41]: 0.06 mg/L
MIC [42]: 0.125 mg/L
MIC [43]: 2 mg/L
MIC [44]: 0.25 mg/L
MIC [45]: 1 mg/L
MIC [46]: 1 mg/L
MIC [47]: 4 mg/L
MIC [48]: 4 mg/L

Reference: patent publication US10760110B2, “Antibiotic testing and screening system” (priority 2017, dated 2020)
